Experimental data published in PMC3740399, “Carfilzomib in multiple myeloma patients with renal impairment: pharmacokinetics and safety” (Leukemia, 2013).

Key:
[1] = Safety: treatment-emergent adverse events (CTCAE Version 3.0); assay type: in vivo, human; conditions: for Anemia, Grades 3/4 / Decreased hemoglobin, Grades 3/4 / Dyspnea, Grades 3/4 / Fatigue, Grades 3/4 / Hypokalemia, Grades 3/4 / Lymphopenia, Grades 3/4 / Pain, Grades 3/4 / Pneumonia, Grades 3/4 / Thrombocytopenia, Grades 3/4: number of patients
Experimental: All patients who received at least one dose of carfilzomib were included in the safety population. Incidence, severity and duration of AEs, including all serious AEs and those considered to be treatment related, and shifts to or from abnormal relative to baseline in key laboratory parameters were categorized according to the National Cancer Institute's Common Terminology Criteria for Adverse Events (CTCAE) Version 3.0.[16] […] ECGs were performed in most patients to satisfy regulatory requirements, but were not required by the study protocol.

[2] = test system: relapsed and/or refractory multiple myeloma; experiment: Efficacy: best response (IMWG criteria with EBMT minimal response); assay type: in vivo, human; conditions: All patients, n=28; patients who received dexamethasone ⩾20 mg before carfilzomib doses
Experimental: Patients who received at least 1 cycle of carfilzomib and had at least one post-baseline assessment for disease response were included in the efficacy analysis. Each evaluable patient's best response to treatment over the course of the study was evaluated by the investigator and sponsor using the International Myeloma Working Group Uniform Response Criteria, modified to include minimal response defined per the European Group for Blood and Marrow Transplantation.[17], [18] Responses assessed by the investigators at the end of the study are reported here. The overall response rate was defined as the proportion of PR or better responses, and the 95% Clopper-Pearson exact binomial CI was calculated. The duration of response was calculated as the time from the first evidence of a PR or better until confirmation of disease progression. Median time to progression and progression-free survival were assessed among all patients with >stable disease (s.d.). For progression-free survival, deaths due to causes other than disease progression were censored.

[3] = Group 1 (normal renal function), n=12
[4] = Group 2 (mild impairment), n=12
[5] = Group 3 (moderate impairment), n=10
[6] = Group 4 (severe impairment), n=8
[7] = Group 5 (chronic dialysis), n=8

## CC(C)C[C@H](NC(=O)[C@H](CCc1ccccc1)NC(=O)CN1CCOCC1)C(=O)N[C@@H](Cc1ccccc1)C(=O)N[C@@H](CC(C)C)C(=O)[C@@]1(C)CO1 [carfilzomib]
[1]; [3]
  Anemia, Grades 3/4: 2
  Decreased hemoglobin, Grades 3/4: 1
  Dyspnea, Grades 3/4: 0
  Fatigue, Grades 3/4: 2
  Hypokalemia, Grades 3/4: 1
  Lymphopenia, Grades 3/4: 2
  Pain, Grades 3/4: 0
  Pneumonia, Grades 3/4: 1
  Thrombocytopenia, Grades 3/4: 1
[1]; [4]
  Anemia, Grades 3/4: 4
  Decreased hemoglobin, Grades 3/4: 0
  Dyspnea, Grades 3/4: 0
  Fatigue, Grades 3/4: 1
  Hypokalemia, Grades 3/4: 1
  Lymphopenia, Grades 3/4: 3
  Pain, Grades 3/4: 2
  Pneumonia, Grades 3/4: 1
  Thrombocytopenia, Grades 3/4: 5
[1]; [5]
  Anemia, Grades 3/4: 5
  Decreased hemoglobin, Grades 3/4: 1
  Dyspnea, Grades 3/4: 2
  Fatigue, Grades 3/4: 2
  Hypokalemia, Grades 3/4: 0
  Lymphopenia, Grades 3/4: 1
  Pain, Grades 3/4: 3
  Pneumonia, Grades 3/4: 3
  Thrombocytopenia, Grades 3/4: 3
[1]; [6]
  Anemia, Grades 3/4: 2
  Decreased hemoglobin, Grades 3/4: 1
  Dyspnea, Grades 3/4: 1
  Fatigue, Grades 3/4: 1
  Hypokalemia, Grades 3/4: 1
  Lymphopenia, Grades 3/4: 2
  Pain, Grades 3/4: 0
  Pneumonia, Grades 3/4: 1
  Thrombocytopenia, Grades 3/4: 1
[1]; [7]
  Anemia, Grades 3/4: 1
  Decreased hemoglobin, Grades 3/4: 1
  Dyspnea, Grades 3/4: 1
  Fatigue, Grades 3/4: 1
  Hypokalemia, Grades 3/4: 1
  Lymphopenia, Grades 3/4: 1
  Pain, Grades 3/4: 0
  Pneumonia, Grades 3/4: 0
  Thrombocytopenia, Grades 3/4: 0
[1]; all patients, n=50
  Grade 3/4 anemia, incidence: 28.0%
  Grade 3/4 fatigue, incidence: 14.0%
  Grade 3/4 lymphopenia, incidence: 18.0%
  Grade 3/4 thrombocytopenia, incidence: 20.0%
[1]; in vivo
  AEs leading to dose reduction: 18.0%
  Clinical congestive heart failure: four
  Grade 3 neuropathy during the study: 2.0%
  Serious AE acute renal failure: 6.0%
  Serious AE congestive heart failure: 6.0%
  Serious AE dehydration: 6.0%
  Serious AE pneumonia: 16.0%
  Serious AEs, patients: 66.0%
  anemia of any grade, incidence: 50.0%
  diarrhea of any grade, incidence: 36.0%
  elevations in serum creatinine from Grade ⩽2 at baseline to Grade 3 at any point after beginning treatment: Five
  fatigue of any grade, incidence: 56.0%
  incidence of treatment-emergent or worsening neuropathy of any grade: 12.0%
  nausea of any grade, incidence: 36.0%
  patients with at least one treatment-emergent AE: 94.0%
  worsening of renal function to Grade 3: 12.0%
[1]; n=2 of 50
  Grade 3/4 infection: respiratory tract infection: 4.0%
  Grade 3/4 infection: sepsis: 4.0%
[1]; n=3 of 50
  Grade 3/4 infection: influenza: 6.0%
[1]; n=6 of 50
  Grade 3/4 infection: bacterial pneumonia: 12.0%
[1]; n=50, all attributed primarily to disease progression
  deaths on study or within 30 days of discontinuation of treatment: five
[1]; three patients of 50
  Serious AE influenza: 6.0%
[2]
  Complete response: 0 n (%)
